One test has as its target rat orexin 1 receptor (Rattus norvegicus, UniProt P56718). As to the kind of experiment: Rat orexin 1 receptor radioligand binding. Here is the method: (§1) Data are analyzed using pc-Sandy macro and graphed on Graphpad Prism 5. For analysis, each concentration point is averaged from triplicate values and the averaged values are plotted on Graphpad Prism. The IC50 was determined by applying the following equation (GraphPad Prism 5.0, SanDiego) for one site competition where X=log (concentration) and Y=specific binding. Top denotes the total [^3H]-(1-(5-(2-fluoro-phenyl)-2-methyl-thiazol-4-yl)-1-((S)-2-(5-phenyl-(1,3,4)oxadiazol-2-ylmethyl)-pyrrolidin-1-yl)-methanone) binding, bottom denotes the nonspecific [^3H]-(1-(5-(2-fluoro-phenyl)-2-methyl-thiazol-4-yl)-1-((S)-2-(5-phenyl-(1,3,4)oxadiazol-2-ylmethyl)-pyrrolidin-1-yl)-methanone) binding. Graphpad Prism calculates Ki value from IC50 and the pre-determined Kd values for [^3H]-(1-(5-(2-fluoro-phenyl)-2-methyl-thiazol-4-yl)-1-((S)-2-(5-phenyl-(1,3,4)oxadiazol-2-ylmethyl)-pyrrolidin-1-yl)-methanone) and [3H]-EMPA. The Ki for each compound is then uploaded into 3DX. Each run comprises individual compounds in triplicate.
(§2) Rat and Human Orexin 1 Receptor Radioligand Binding Studies
After centrifugation (2K×G, 5 min at 4° C.), the supernatant was aspirated and the pellets frozen and stored at −80° C. […] Each cell pellet from a 15 cm plate was resuspended in 10 mL, stored on ice, and homogenized for 45 sec prior to addition to the reactions. Competition binding experiments in 96 well polypropylene plates were performed using [^3H]-(1-(5-(2-fluoro-phenyl)-2-methyl-thiazol-4-yl)-1-((S)-2-(5-phenyl-(1,3,4)oxadiazol-2-ylmethyl)-pyrrolidin-1-yl)-methanone) (Moraveck Corporation, specific activity=35.3 Ci/mmol), diluted to a 10 nM concentration in PBS (4 nM final). […] The final concentration of DMSO in the reactions is equal to or less than 0.1%. Total and nonspecific binding was determined in the absence and presence of 10 μM almorexant. The total volume of each reaction is 200 μL (20 μL of diluted compounds, 80 μL of [^3H]-(1-(5-(2-fluoro-phenyl)-2-methyl-thiazol-4-yl)-1-((S)-2-(5-phenyl-(1,3,4)oxadiazol-2-ylmethyl)-pyrrolidin-1-yl)-methanone) diluted in PBS and 100 μL of the cell suspension). […] The plates were washed 3 times by aspirating 30 ml PBS through the plates. Plates were dried in 55° C. oven for 60 min, scintillation fluid was added, and the radioactivity was counted on a Topcount (Packard).

For another test, the target named is human orexin 1 receptor (Homo sapiens, UniProt O43613). As to the kind of experiment: Human orexin 1 receptor radioligand binding. As to the method: The in vitro affinity of the compounds of the invention for the rat/human orexin 1 and human orexin 2 receptors was determined by competitive radioligand binding using [^3H](1-(5-(2-fluoro-phenyl)-2-methyl-thiazol-4-yl)-1-((S)-2-(5-phenyl-(1,3,4)oxadiazol-2-ylmethyl)-pyrrolidin-1-yl)-methanone) (Langmead et al., 2004) and [^3H]EMPA (n-ethyl-2[96-methoxypyridin-3-yl)-(toluene-2-sulfonyl)-amino]-N-pyridin-3-ylmethyl acetamide), respectively (Langmead et al., 2004, British Journal of Pharmacology 141:340-346; Malherbe et al., 2004, British Journal of Pharmacology 156:1326-41).
as §1, §2
Human Embryonic Kidney 293 cells (HEK293) stably expressing rat orexin 1 receptor (Genebank accession number NM_001525) or Chinese ovary cells (CHO) stably expressing human orexin 1 receptor (Genebank accession number NM_001526) were grown to confluency in DMEM (Hyclone, cat #SH30022), 10% FBS, 1×Pen/Strep, 1× sodium pyruvate, 10 mM HEPES, 600 μg/mL G418 and DMEM/F12 (Gibco, Cat #11039), 10% FBS, 1×Pen/Strep, 600 μg/mL G418 media, respectively on 150 cm^2 tissue culture plates, washed with 5 mM EDTA in PBS (HyClone Dulbecco's Phosphate Buffered Saline 1× with Calcium and Magnesium, Cat #SH30264.01, hereafter referred to simply as PBS) and scraped into 50 ml tubes. After centrifugation (2K×G, 5 min at 4° C.), the supernatant was aspirated and the pellets frozen and stored at −80° C. Cells were resuspended in PBS in the presence of 1 tablet of protease inhibitor cocktail (Roche, Cat. #11836145001) per 50 mL. Each cell pellet from a 15 cm plate was resuspended in 10 mL, stored on ice, and homogenized for 45 sec prior to addition to the reactions. Competition binding experiments in 96 well polypropylene plates were performed using [^3H]-(1-(5-(2-fluoro-phenyl)-2-methyl-thiazol-4-yl)-1-((S)-2-(5-phenyl-(1,3,4)oxadiazol-2-ylmethyl)-pyrrolidin-1-yl)-methanone) (Moraveck Corporation, specific activity=35.3 Ci/mmol), diluted to a 10 nM concentration in PBS (4 nM final). […] The final concentration of DMSO in the reactions is equal to or less than 0.1%. Total and nonspecific binding was determined in the absence and presence of 10 μM almorexant. The total volume of each reaction is 200 μL (20 μL of diluted compounds, 80 μL of [^3H]-(1-(5-(2-fluoro-phenyl)-2-methyl-thiazol-4-yl)-1-((S)-2-(5-phenyl-(1,3,4)oxadiazol-2-ylmethyl)-pyrrolidin-1-yl)-methanone) diluted in PBS and 100 μL of the cell suspension). Reactions were run for 60 min at room temperature and terminated by filtration through GF/C filter plates (PerkinElmer, Cat. #6005174) presoaked in 0.3% polyethylenimine using the cell harvester (PerkinElmer Filtermate). The plates were washed 3 times by aspirating 30 ml PBS through the plates. Plates were dried in 55° C. oven for 60 min, scintillation fluid was added, and the radioactivity was counted on a Topcount (Packard).

In the next test the target is human orexin 2 receptor (Homo sapiens (Human), UniProt O43614). The experiment in a line: Human orexin 2 receptor radioligand binding ([3H]-EMPA). As to conditions: averages of 2-20 runs, read-out: hOX2 Ki. As to the method:
as §1
Human Orexin 2 Receptor Radioligand Binding Studies
HEK293 stably expressing human orexin 2 receptor (Genebank accession number NM_001526) were grown to confluency in DMEM (Hyclone, cat #SH30022), 10% FBS, 1×Pen/Strep, 1× NaPyruvate, 10 mM HEPES, 600 ug/ml G418 media on 150 cm^2 tissue culture plates, washed with 5 mM EDTA in PBS (HyClone Dulbecco's Phosphate Buffered Saline 1× with Calcium and Magnesium, Cat #SH30264.01, hereafter referred to simply as PBS) and scraped into 50 ml tubes. After centrifugation (2K×G, 5 min at 4° C.), the supernatant was aspirated and the pellets frozen and stored at −80° C. […] Each cell pellet from a 15 cm plate was resuspended in 10 mL, stored on ice, and homogenized for 45 sec just prior to addition to the reactions. Competition binding experiments in 96 well polypropylene plates were performed using [^3H]-EMPA (Moraveck Corporation, specific activity=29.6 Ci/mmol), diluted to a 5 nM concentration in PBS (2 nM final concentration). […] The final concentration of DMSO in the reactions is equal to or less than 0.1%. Total and nonspecific binding was determined in the absence and presence of 10 μM almorexant. The total volume of each reaction is 200 μL (20 μL of diluted compounds, 80 μL of [^3H]-EMPA diluted in PBS and 100 μL of the cell suspension). […] The plates were washed 3 times by aspirating 30 ml PBS through the plates. Plates were dried in 55° C. oven for 60 min, scintillation fluid was added, and the radioactivity was counted on a Topcount (Packard).

Setting [1] is: rat orexin 1 receptor radioligand binding, averages of 2-20 runs, read-out: rOX1 Ki.

Structures can show the parent of a compound that is named as a salt. Where two headings read alike, the source gives them in different places.

human orexin 2 receptor, sequence (O43614 whole entry): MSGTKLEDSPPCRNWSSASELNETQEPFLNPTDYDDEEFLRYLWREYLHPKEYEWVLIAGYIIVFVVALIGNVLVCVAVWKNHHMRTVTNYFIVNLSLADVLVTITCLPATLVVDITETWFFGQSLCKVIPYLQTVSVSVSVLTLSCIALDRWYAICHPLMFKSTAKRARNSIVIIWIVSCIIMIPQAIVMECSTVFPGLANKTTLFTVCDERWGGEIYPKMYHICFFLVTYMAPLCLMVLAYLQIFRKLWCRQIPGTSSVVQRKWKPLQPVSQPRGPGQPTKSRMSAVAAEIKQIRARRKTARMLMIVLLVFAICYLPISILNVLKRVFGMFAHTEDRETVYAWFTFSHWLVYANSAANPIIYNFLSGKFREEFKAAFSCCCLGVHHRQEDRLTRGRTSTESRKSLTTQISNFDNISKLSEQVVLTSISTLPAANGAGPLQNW

A word on the Ki: it is the dissociation constant of the complex between target and ligand, obtained from inhibition or displacement. With `Cc1ccc(-c2ncco2)c(C(=O)N2CCC[C@@H](Nc3ccc(C(F)(F)F)cn3)[C@@H]2C)n1` (racemic) [Example 22, (±)-trans-(2-methyl-3-((5-(trifluoromethyl)pyridin-2-yl)amino)piperidin-1-yl)(6-methyl-3-(oxazol-2-yl)pyridin-2-yl)methanone hydrochloride], the values for the Ki at rat orexin 1 receptor and on human orexin 1 receptor were 0.036 µM and 0.021 µM, respectively.
Regarding `Cc1noc(-c2cc(F)ccc2C(=O)N2CCC[C@@H](Nc3ncc(C(F)(F)F)cn3)[C@@H]2C)n1` (relative stereo) [Example 197, (4-fluoro-2-(3-methyl-1,2,4-oxadiazol-5-yl)phenyl)((2S*,3R*)-2-methyl-3-((5-(trifluoromethyl)pyrimidin-2-yl)amino)piperidin-1-yl)methanone], the Ki on rat orexin 1 receptor (setting [1]) is 0.332 µM; at human orexin 2 receptor it was 6.6 µM.
On to `COc1ccc(C(=O)N2CCC[C@@H](Nc3ncc(C(F)(F)F)cn3)[C@@H]2C)c(Cl)n1` (relative stereo) [Example 201, (2-chloro-6-methoxypyridin-3-yl)((2S*,3R*)-2-methyl-3-((5-(trifluoromethyl)pyrimidin-2-yl)amino)piperidin-1-yl)methanone], for which the inhibition constant (Ki) on rat orexin 1 receptor (setting [1]) and on human orexin 2 receptor was above 10 µM each time.
As to `C[C@H]1[C@H](Nc2ncc(C(F)(F)F)cn2)CCCN1C(=O)c1ccc(F)cc1-c1ncco1` (relative stereo) [Example 205, (4-fluoro-2-(oxazol-2-yl)phenyl)((2S*,3R*)-2-methyl-3-((5-(trifluoromethyl)pyrimidin-2-yl)amino)piperidin-1-yl)methanone], the inhibition constant (Ki) was 0.411 µM at rat orexin 1 receptor (setting [1]) and 5.8 µM on human orexin 2 receptor.
On the same counts, the results for `Cc1cnc(C(=O)N2CCC[C@@H](Nc3nc4ccccc4o3)[C@@H]2C)c(-n2nccn2)c1` [Example 73, ((2S,3R)-3-(benzo[d]oxazol-2-ylamino)-2-methylpiperidin-1-yl)(5-methyl-3-(2H-1,2,3-triazol-2-yl)pyridin-2-yl)methanone] are 0.008 µM and 2.27 µM.
With `C[C@H]1[C@H](Oc2cnc(C(F)(F)F)cn2)CCCN1C(=O)c1cccnc1-n1nccn1` [Example 148, (2-(2H-1,2,3-triazol-2-yl)pyridin-3-yl)((2S,3R)-2-methyl-3-((5-(trifluoromethyl)pyrazin-2-yl)oxy)piperidin-1-yl)methanone], the values for the inhibitory constant (Ki) at rat orexin 1 receptor (setting [1]) and at human orexin 2 receptor were 3.4 µM and above 10 µM, respectively.
As for `C[C@H]1[C@H](Oc2ccc(C(F)(F)F)cn2)CCCN1C(=O)c1cccnc1-n1nccn1` [Example 153, (2-(2H-1,2,3-triazol-2-yl)pyridin-3-yl)((2S,3R)-2-methyl-3-((5-(trifluoromethyl)pyridin-2-yl)oxy)piperidin-1-yl)methanone], the Ki on rat orexin 1 receptor (setting [1]) was 0.353 µM; on human orexin 2 receptor it was above 10 µM.
On the same counts, the results for `Cc1cnc(-n2nccn2)c(C(=O)N2CCC[C@@H](Oc3ncc(Cl)cn3)[C@@H]2C)c1` [Example 162, ((2S,3R)-3-((5-chloropyrimidin-2-yl)oxy)-2-methylpiperidin-1-yl)(5-methyl-2-(2H-1,2,3-triazol-2-yl)pyridin-3-yl)methanone] are 0.621 µM and above 10 µM.
On the same counts, the results for `COc1ccc(C(=O)N2CCC[C@@H](Oc3cnc(C(F)(F)F)cn3)[C@@H]2C)c(-n2nccn2)c1` [Example 172, (4-methoxy-2-(2H-1,2,3-triazol-2-yl)phenyl)((2S,3R)-2-methyl-3-((5-(trifluoromethyl)pyrazin-2-yl)oxy)piperidin-1-yl)methanone] are 0.447 µM and above 10 µM.
On the same counts, the results for `C[C@H]1[C@H](Oc2cnc(C(F)(F)F)cn2)CCCN1C(=O)c1nccnc1-c1ccccc1` [Example 173, ((2S,3R)-2-methyl-3-((5-(trifluoromethyl)pyrazin-2-yl)oxy)piperidin-1-yl)(3-phenylpyrazin-2-yl)methanone] are 0.423 µM and 8.2 µM.
`COc1ccc(C(=O)N2CCC[C@@H](Oc3ncc(C(F)(F)F)cn3)[C@@H]2C)c(-n2nccn2)c1` [Example 174, (4-methoxy-2-(2H-1,2,3-triazol-2-yl)phenyl)((2S,3R)-2-methyl-3-((5-(trifluoromethyl)pyrimidin-2-yl)oxy)piperidin-1-yl)methanone]: the inhibitory constant (Ki) on rat orexin 1 receptor (setting [1]) is 0.504 µM; on human orexin 2 receptor, above 10 µM.
For `Cc1cnc(-n2nccn2)c(C(=O)N2CCC[C@@H](Oc3ncc(C(F)(F)F)cn3)[C@@H]2C)c1` [Example 176, (5-methyl-2-(2H-1,2,3-triazol-2-yl)pyridin-3-yl)((2S,3R)-2-methyl-3-((5-(trifluoromethyl)pyrimidin-2-yl)oxy)piperidin-1-yl)methanone], the figures for the inhibitory constant (Ki) on rat orexin 1 receptor (setting [1]) and on human orexin 2 receptor were 0.374 µM and above 10 µM, respectively.
For `C[C@H]1[C@H](Oc2ncc(C(F)(F)F)cn2)CCCN1C(=O)c1nccnc1-c1ccccc1` [Example 178, ((2S,3R)-2-methyl-3-((5-(trifluoromethyl)pyrimidin-2-yl)oxy)piperidin-1-yl)(3-phenylpyrazin-2-yl)methanone], in that order: 0.679 µM and above 10 µM.

The record behind these values is patent US9611251B2, “Substituted piperidine compounds and their use as orexin receptor modulators” (Janssen Pharmaceutica NV, priority 2013, dated 2017).
